Source: patent US20250161285A1, “BACTERIAL BIOFILM INHIBITORS” (THE RESEARCH INSTITUTE AT NATIONWIDE CHILDREN'S HOSPITAL, priority 2022, published 2025)

Legend:
[1] = test system: S. Typhimurium ATCC 14028 (JSG210) biofilms; assay: Biofilm dispersion assay on pre-formed biofilms (crystal violet staining); type: cell-based, Salmonella enterica serovar Typhimurium; conditions: for EC50: 50% dispersion of biofilms established 24 h, then 24 h with compound, crystal violet OD570, mean ± standard deviation; for fold improvement of dispersion activity (EC50) versus comparator: 4d vs 1, 6g vs 4c and 4d, lead compounds vs parent compound
Experimental: (§1) Salmonella biofilm growth and crystal violet staining. […] For biofilm assays, individual bacterial colonies were picked and used to inoculate LB broth for overnight liquid cultures, which were grown at 37° C. with aeration using a rotating drum. […] Biofilm plates were then submerged in dH2O to wash away any remaining non-adherent bacteria and heat fixed (1h, 60° C.). Biofilms were then stained with a 33% crystal violet solution (6 mL PBS, 3.3 mL crystal violet, 333 μL methanol, 333 μL isopropanol) for 5 min. and washed twice by submerging in dH2O before releasing the bound dye with 33% glacial acetic acid. Biofilm growth was then quantified by measuring the optical density of the solubilized dye at 570 nm using a spectrophotometer (Molecular Devices, SpectraMax M5).
(§2) Biofilm Inhibition and Dispersion Assays and IC50/EC50 Determination. […] Biofilms were then grown as described above for a total of 24 h prior to CV staining. […] Biofilms were then incubated for an additional 24 h in the presence of compounds prior to CV staining. IC50/EC50 values were calculated by plotting normalized compound activity (percent biofilm formed and percent remaining, respectively) as a function of log10 compound concentration and fitting a dose response curve (log[inhibitor] vs. normalized response, variable slope).

[2] = test system: S. Typhimurium ATCC 14028 (JSG210) biofilms; assay: Biofilm inhibition assay (crystal violet staining); type: cell-based, Salmonella enterica serovar Typhimurium; conditions: for IC50: inhibition of S. Typhimurium biofilm formation, compound present 24 h, crystal violet OD570, mean ± standard deviation; for fold improvement of IC50 versus comparator: 6a vs 4c, 6b vs 4d, 6g vs 4c and 4d, 8i vs 8b
Experimental: Inhibition of biofilm formation is assessed by growing bacteria in a 96-well plate in the absence (control) or presence of test compounds. After 24 hours, the wells are washed to remove planktonic bacteria, and the remaining surface attached bacteria (biofilm) are stained with crystal violet (CV). The wells are then washed again to remove excess CV, and the remaining CV is solubilized with a solution of acetic acid and then quantified by spectrophotometry at 570 nm. A dose response curve is then constructed from which an IC50 value is determined.
as §1, §2

Structure (SMILES)	EC50 [1] [µM]	IC50 [2] [µM]	fold improvement of dispersion activity (EC50) versus comparator [1]	anti-biofilm activity (inhibition and dispersion) in words ([2]; S. Typhimurium biofilms in vitro)	fold improvement of IC50 versus comparator [2]
CN(Cc1ccccc1Br)CC1CCN(CCc2ccccc2F)CC1 [Compound 3.1e]	42	6.5			
CN(Cc1ccncc1)CC1CCN(CCc2ccccc2F)CC1 [Compound 3.8c]	> 50	> 20			
COc1ccccc1CCN1CCC(CN(C)Cc2ccsc2)CC1 [Compound 4f]	11760 ± 77	16.9 ± 5.2			
CN(Cc1ccccc1I)CC1CCN(CCc2ccc(Cl)c(Cl)c2)CC1 [Compound 3.2d]	26	3.4			
CN(Cc1ccsc1)CC1CCN(CCc2cccc3ccccc23)CC1 [Compound 8k]	28 ± 5	2.5			
Cc1ccccc1CN(C)CC1CCN(CCc2ccccc2F)CC1 [Compound 3.1b]	> 75	4.4			
CN(Cc1ccsc1)CC1CCN(Cc2cccc(Br)c2)CC1 [Compound 7i]	142 ± 9	6.5 ± 2.9			
CN(Cc1ccsc1)CC1CCN(CCc2ccc(F)cc2)CC1 [Compound 4d]	235	16.8 ± 3.4	ca. 3.5		
CN(Cc1ccsc1)CC1CCN(CCc2cc(F)cc(F)c2)CC1 [Compound 4e]	> 12000	> 200		inactive	
CN(Cc1ccccc1)CC1CCN(CCc2ccccc2F)CC1 [Compound 3.1a]	> 75	5			
CN(Cc1ccsc1)CC1CCN(CCc2ccc(Cl)cc2Cl)CC1 [Compound 7c]	22 ± 2	2.5 ± 0.5			
CN(Cc1ccsc1)CC1CCN(CCc2cccc(Cl)c2)CC1 [Compound 6a]	135 ± 12	2			over two-fold
CN(Cc1ccsc1)CC1CCN(Cc2ccccc2F)CC1 [Compound 6i]	125 ± 6	8.8 ± 0.8			
CN(Cc1ccsc1)CC1CCN(Cc2ccc(F)cc2)CC1 [Compound 7j]	443 ± 52	12.9 ± 1.4			
CN(Cc1ccsc1)CC1CCN(CCc2ccc(F)c(F)c2)CC1 [Compound 6g]	87 ± 13	3 ± 0.2	over two-fold		over two-fold
CN(Cc1ccsc1)CC1CCN(Cc2cccc(Cl)c2Cl)CC1 [Compound 7r]	70 ± 8	2.7 ± 1.4			
Cc1ccccc1CCN1CCC(CN(C)Cc2ccsc2)CC1 [Compound 8g]	247 ± 11	6.3 ± 2.3			
CN(Cc1ccsc1)CC1CCN(CCc2ccccc2C(F)(F)F)CC1 [Compound 7e]	60 ± 2	12.7 ± 4.1			
CN(Cc1ccccc1I)CC1CCN(CCc2ccc(Cl)cc2Cl)CC1 [Compound 3.3d]	> 50	10.1 ± 4.5			
CN(Cc1ccsc1)CC1CCN(Cc2c(F)cccc2F)CC1 [Compound 7n]	> 12000	> 200			
CN(Cc1cccc(Cl)c1)CC1CCN(CCc2ccc(Cl)c(Cl)c2)CC1 [Compound 3.2f]	21	2.3			
CN(Cc1ccsc1)CC1CCN(Cc2cc(Cl)ccc2Cl)CC1 [Compound 7p]	196 ± 27	15.8 ± 1.4			
CN(Cc1ccsc1)CC1CCN(Cc2ccc(F)c(F)c2)CC1 [Compound 7o]	3800 ± 204	7.2 ± 1.8			
CN(Cc1ccsc1)CC1CCN(Cc2ccccc2Cl)CC1 [Compound 6j]	1810 ± 176	2.7 ± 0.7			
CN(Cc1ccsc1)CC1CCN(CCCc2ccccc2)CC1 [Compound 6n]	> 12000	78.1 ± 3.7			
CN(Cc1cccc(Cl)c1)CC1CCN(CCc2ccccc2F)CC1 [Compound 3.1h]	> 75	5.6			
CN(Cc1ccsc1)CC1CCN(CCCc2ccccc2Cl)CC1 [Compound 6m]	59 ± 4	5.4 ± 1.2			
CN(Cc1ccsc1)CC1CCN(CCc2ccccc2I)CC1 [Compound 8a]	60 ± 2	4.3			

Structure (SMILES)	EC50 [1] [µM]	IC50 [2] [µM]	fold improvement of dispersion activity (EC50) versus comparator [1]	anti-biofilm activity (inhibition and dispersion) in words ([2]; S. Typhimurium biofilms in vitro)	fold improvement of IC50 versus comparator [2]
CN(Cc1ccsc1)CC1CCN(CCc2cccc(-c3ccccc3)c2)CC1 [Compound 8i]	31 ± 4	1.8			two-fold
CN(Cc1ccsc1)CC1CCN(Cc2cc(F)cc(F)c2)CC1 [Compound 7m]	> 12000	14.2 ± 1.7			
CN(Cc1ccsc1)CC1CCN(Cc2cccc(I)c2)CC1 [Compound 8e]	92 ± 3	10 ± 4.5			
CN(Cc1ccsc1)CC1CCN(CCc2ccc(Cl)c(Cl)c2)CC1 [Compound 7a]	45 ± 2	1.4			
CN(Cc1ccsc1)CC1CCN(Cc2ccc(Br)c(Br)c2)CC1 [Compound 7s]	32 ± 1	11.9 ± 1.7			
CN(Cc1ccsc1)CC1CCN(CCc2cc(Br)cc(Br)c2)CC1 [Compound 6f]	42	3.4			
CN(Cc1ccsc1)CC1CCN(CCc2ccccc2Br)CC1 [Compound 4b]	308 ± 11	7.2 ± 1.6			
CN(Cc1cccc(Cl)c1Cl)CC1CCN(CCc2ccccc2F)CC1 [Compound 3.1l]	43	5.6			
CN(Cc1cccc(Cl)c1Cl)CC1CCN(CCc2ccc(Cl)cc2Cl)CC1 [Compound 3.3i]	8 ± 4	6.5 ± 2.5			
CN(Cc1ccsc1)CC1CCN(Cc2ccccc2)CC1 [Compound 6k]	> 12000	26.7 ± 1.2			
CN(Cc1ccccc1Cl)CC1CCN(CCc2ccc(Cl)cc2Cl)CC1 [Compound 3.3c]	14 ± 10	11.3 ± 7.3			
CN(Cc1ccsc1)CC1CCN(Cc2ccccc2Br)CC1 [Compound 7f]	79 ± 3	4.9 ± 0.8			
CN(Cc1ccsc1)CC1CCN(CCc2ccc(I)cc2)CC1 [Compound 8c]	89 ± 10	2.6			
CN(Cc1ccsc1)CC1CCN(Cc2ccc(Cl)cc2)CC1 [Compound 7k]	934 ± 26	5.9 ± 2.8			
CN(Cc1ccsc1)CC1CCN(CCc2ccc(Br)cc2)CC1 [Compound 6d]	57 ± 4	3 ± 0.7			
CN(Cc1ccsc1)CC1CCN(CCc2ccccc2)CC1 [Compound 4g]	> 12000	21.2 ± 2.6			
CN(Cc1ccsc1)CC1CCN(Cc2ccc(I)cc2)CC1 [Compound 8f]	77 ± 3	5.7 ± 2.9			
CN(Cc1ccsc1)CC1CCN(CCc2cccc(F)c2)CC1 [Compound 4c]	388 ± 19	6.9 ± 0.1			
CN(Cc1ccsc1)CC1CCN(CCc2ccccc2Cl)CC1 [Compound 4a]	232 ± 6	6 ± 1.4			
CN(Cc1ccsc1)CC1CCN(CCc2cccc(I)c2)CC1 [Compound 8b]	44 ± 2	4 ± 0.7			
CN(Cc1ccsc1)CC1CCN(Cc2ccc(Br)cc2)CC1 [Compound 7l]	127 ± 13	8.5 ± 1.8			
CN(Cc1ccsc1)CC1CCN(CCc2c(F)cccc2F)CC1 [Compound 6h]	138 ± 18	6.3 ± 0.6			
CN(Cc1ccccc1)CC1CCN(CCc2ccc(Cl)c(Cl)c2)CC1 [Compound 3.2a]	35	0.59			
CN(Cc1ccccc1I)CC1CCN(CCc2ccccc2F)CC1 [Compound 3.1f]	53	4.4			
CN(Cc1ccsc1)CC1CCN(Cc2cccc(F)c2F)CC1 [Compound 7t]	870 ± 79	146			
CN(Cc1ccccc1)CC1CCN(CCc2ccc(Cl)cc2Cl)CC1 [Compound 3.3a]	11 ± 7	4.3 ± 2.1			
CN(Cc1ccsc1)CC1CCN(CCc2cccc(Br)c2)CC1 [Compound 6c]	83 ± 6	3.6			
